From ChEMBL document CHEMBL3046314, “Synthesis, cytotoxicity, and molecular properties prediction of novel 1,3-diarylpyrazole derivatives” (Med Chem Res, 2013)

Tests used:
Assay type in all cases: functional, cell-based
HL-60 = test: Cytotoxicity against Homo sapiens (human) HL60 cells after 48 hr by MTT assay
MCF7 = test: Cytotoxicity against Homo sapiens (human) MCF7 cells after 48 hr by MTT assay
MDA-MB-231 = test: Cytotoxicity against Homo sapiens (human) MDA-MB-231 cells after 48 hr by MTT assay; conditions: MDA-MB-231, 48 h
HeLa = test: Cytotoxicity against Homo sapiens (human) HeLa cells after 48 hr by MTT assay
Raji = test: Cytotoxicity against Homo sapiens (human) Raji cells after 48 hr by MTT assay
[1] = Homo sapiens, HL-60, 48 h, read-out: IC50
[2] = Homo sapiens, MCF7, 48 h, read-out: IC50
[3] = Homo sapiens, Raji, 48 h, read-out: IC50

Row | SMILES | IC50 (HL-60; [1]) [µM] | IC50 (MCF7; [2]) [µM] | IC50 (MDA-MB-231) [µM] | IC50 (HeLa) [µM] | IC50 (Raji; [3]) [µM] | IC50 (HL-60; hl-60) | IC50 (MCF7; mcf7) | IC50 (Raji; raji)
1 | CN1CCN(C(=O)c2cn(-c3ccccc3)nc2-c2cccnc2)CC1 | > 100 | > 100 | > 100 | > 100 | 75.6 |  |  | 
2 | O=C(O)c1cn(-c2ccccc2)nc1-c1ccncc1 | > 100 | > 100 | > 100 | > 100 | > 100 |  |  | 
3 | O=C(O)c1cn(-c2ccccc2)nc1-c1cccnc1 | > 100 | > 100 | > 100 | > 100 | > 100 |  |  | 
4 | O=C(c1cn(-c2ccccc2)nc1-c1cccnc1)N1CCN(c2ccc(C(F)(F)F)cc2)CC1 | 16.9 | 75.3 | > 100 | 28.6 | 15.1 |  |  | 
5 | COc1ccc(OC(=O)c2cn(-c3ccccc3)nc2-c2cccnc2)cc1 | > 100 | > 100 | > 100 | > 100 | > 100 |  |  | 
6 | CC(C)c1cccc(OC(=O)c2cn(-c3ccccc3)nc2-c2cccnc2)c1 | 23.7 | 75.5 | > 100 | > 100 | 11.6 |  |  | 
7 | CC(C)(C)c1ccc(OC(=O)c2cn(-c3ccccc3)nc2-c2cccnc2)cc1 | > 100 | > 100 | > 100 | > 100 | 42.3 |  |  | 
8 | Cc1ccc(C(C)C)c(OC(=O)c2cn(-c3ccccc3)nc2-c2cccnc2)c1 | 22.7 | 84.2 | > 100 | > 100 | 20.6 |  |  | 
9 | O=C(Oc1ccc(-c2ccccc2)cc1)c1cn(-c2ccccc2)nc1-c1cccnc1 |  |  | > 100 | > 100 |  | ND(Insoluble) | ND(Insoluble) | ND(Insoluble)
10 | O=C(Oc1ccc2ccccc2c1)c1cn(-c2ccccc2)nc1-c1cccnc1 |  |  | > 100 | > 100 |  | ND(Insoluble) | ND(Insoluble) | ND(Insoluble)
11 | O=C(NCc1ccccc1)c1cn(-c2ccccc2)nc1-c1ccncc1 | > 100 | > 100 | > 100 | > 100 | > 100 |  |  | 
12 | O=C(c1cn(-c2ccccc2)nc1-c1ccncc1)N1CCOCC1 | > 100 | > 100 | > 100 | > 100 | > 100 |  |  | 
13 | O=C(c1cn(-c2ccccc2)nc1-c1ccncc1)N1CCC(Cc2ccccc2)CC1 | 16.4 | 56.4 | > 100 | 32.8 | 21.3 |  |  | 
14 | CN1CCN(C(=O)c2cn(-c3ccccc3)nc2-c2ccncc2)CC1 | > 100 | > 100 | > 100 | > 100 | > 100 |  |  | 
15 | O=C(c1cn(-c2ccccc2)nc1-c1ccncc1)N1CCN(c2ccccc2)CC1 | > 100 | > 100 | > 100 | > 100 | > 100 |  |  | 
16 | O=C(c1cn(-c2ccccc2)nc1-c1ccncc1)N1CCN(c2ccc(C(F)(F)F)cc2)CC1 | > 100 | > 100 | > 100 | > 100 | 9.63 |  |  | 
17 | O=C(c1cn(-c2ccccc2)nc1-c1ccncc1)N1CCN(c2ccncc2)CC1 | > 100 | > 100 | > 100 | > 100 | > 100 |  |  | 
18 | COc1ccc(OC(=O)c2cn(-c3ccccc3)nc2-c2ccncc2)cc1 | > 100 | > 100 | > 100 | > 100 | > 100 |  |  | 
19 | CCc1ccc(OC(=O)c2cn(-c3ccccc3)nc2-c2ccncc2)cc1 |  |  | > 100 | > 100 |  | ND(Insoluble) | ND(Insoluble) | ND(Insoluble)
20 | CC(C)c1cccc(OC(=O)c2cn(-c3ccccc3)nc2-c2ccncc2)c1 |  |  | > 100 | > 100 |  | ND(Insoluble) | ND(Insoluble) | ND(Insoluble)
21 | CC(C)(C)c1ccc(OC(=O)c2cn(-c3ccccc3)nc2-c2ccncc2)cc1 | 18.7 | 32.2 | 34.5 | 35.4 | 33.3 |  |  | 
22 | Cc1ccc(C(C)C)c(OC(=O)c2cn(-c3ccccc3)nc2-c2ccncc2)c1 | 17.8 | > 100 | > 100 | > 100 | 10.6 |  |  | 
23 | O=C(Oc1ccc(-c2ccccc2)cc1)c1cn(-c2ccccc2)nc1-c1ccncc1 |  |  | > 100 | > 100 |  | ND(Insoluble) | ND(Insoluble) | ND(Insoluble)
24 | O=C(Oc1ccc2ccccc2c1)c1cn(-c2ccccc2)nc1-c1ccncc1 | > 100 | 44.5 | > 100 | > 100 | 12.1 |  |  | 
25 | O=C(NCc1ccccc1)c1cn(-c2ccccc2)nc1-c1cccnc1 |  |  | > 100 | > 100 |  | ND(Insoluble) | ND(Insoluble) | ND(Insoluble)
26 | O=C(c1cn(-c2ccccc2)nc1-c1cccnc1)N1CCOCC1 | > 100 | > 100 | > 100 | > 100 | > 100 |  |  | 
27 | O=C(c1cn(-c2ccccc2)nc1-c1cccnc1)N1CCC(Cc2ccccc2)CC1 | 16.1 | 32.2 | > 100 | 25.3 | 8.12 |  |  | 
28 | O=C(c1cn(-c2ccccc2)nc1-c1cccnc1)N1CCN(c2ccccc2)CC1 | 24.5 | > 100 | > 100 | > 100 | 32.8 |  |  | 
29 | O=C(c1cn(-c2ccccc2)nc1-c1cccnc1)N1CCN(c2ccncc2)CC1 | > 100 | > 100 | > 100 | > 100 | > 100 |  |  | 
